According to the supplement of paper PMC10307832:

Legend:
Assay in all cases: relative viability (nuclei count vs DMSO), 5 days (fraction); higher = more cells survive
[1] = compound: NCC(=O)Nc1ccc(-n2nc(C(F)(F)F)cc2-c2ccc3c(ccc4ccccc43)c2)cc1
Method in brief: (§1)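 MetaXpress counted nuclei in 4× images of lung cancer cell lines that had been fixed, permeabilised and Hoechst-stained in one step. Before that, cells in 1536-well plates were kept overnight at 37 °C, pinned with five √10-spaced library-drug doses on vehicle-anchored plates, and cultured 5 days without medium change. Viability takes treated-well nuclei over vehicle-well nuclei and uses the median across plates. Plates were accepted only at control CV below 25% and at least one doubling.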

kb NB 142-70 = compound: C1CSC2=C(C(=O)N1)SC3=C2C=C(C=C3)O [kb NB 142-70]
Method in brief: as §1

[2] = compound: NCC(=O)Nc1ccc(-n2nc(C(F)(F)F)cc2-c2ccc3c(ccc4ccccc43)c2)cc1 + Nc1nc2[nH]cc(CCc3ccc(C(=O)N[C@@H](CCC(=O)O)C(=O)O)cc3)c2c(=O)[nH]1 [Pemetrexed] (partner 0.2 µM)
Method in brief: (§2)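 A single step with final 0.05% Triton X-100, 1% formaldehyde and 1 ug/ml Hoechst fixed the cells and stained nuclei 5 days after treatment. Lung cancer cell lines in 1536-well plates had been treated by pin tool the day after seeding with one drug alone or a fixed anchor-drug dose plus five library-drug doses (not always all listed) in √10 steps, and nuclei were counted on 4× images. Relative viability is the ratio of nuclei in treated wells to nuclei in vehicle wells, taken as the median of duplicate plates.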

kb NB 142-70 + OSI-027 = compound: C1CSC2=C(C(=O)N1)SC3=C2C=C(C=C3)O [kb NB 142-70] + COc1cccc2cc(-c3nc([C@H]4CC[C@H](C(=O)O)CC4)n4ncnc(N)c34)[nH]c12 [OSI-027] (partner 0.5 µM)
Method in brief: as §2

| Cell Line | relative viability ([1]; 0.02 µM) | relative viability ([1]; 0.06325 µM) | relative viability ([1]; 0.2 µM) | relative viability ([1]; 0.6325 µM) | relative viability ([1]; 2 µM) | relative viability (kb NB 142-70; 0.1 µM) | relative viability (kb NB 142-70; 1 µM) | relative viability (kb NB 142-70; 3.162 µM) | relative viability ([2]; first compound 0.02 µM) | relative viability ([2]; first compound 0.06325 µM) | relative viability ([2]; first compound 0.2 µM) | relative viability ([2]; first compound 0.6325 µM) | relative viability ([2]; first compound 2 µM) | relative viability (kb NB 142-70 + OSI-027; first compound 0.1 µM) | relative viability (kb NB 142-70 + OSI-027; first compound 1 µM) | relative viability (kb NB 142-70 + OSI-027; first compound 3.162 µM) |
| --- | --- | --- | --- | --- | --- | --- | --- | --- | --- | --- | --- | --- | --- | --- | --- | --- |
| 201T | 0.892 | 1.01 | 0.98 | 0.989 | 1.01 | 1.01 | 0.966 | 1.02 | 0.321 | 0.32 | 0.326 | 0.301 | 0.311 | 0.723 | 0.714 | 0.653 |
| A549 | 1.03 | 0.987 | 1.01 | 0.949 | 0.915 | 0.96 | 0.957 | 0.689 | – | – | – | – | – | – | – | – |
| A-427 | 0.766 | 1.06 | 0.998 | 0.994 | 1.03 | 1.04 | 1 | 0.969 | 1 | 0.975 | 1.02 | 0.974 | 0.957 | 0.524 | 0.469 | 0.408 |
| ABC-1 | 0.914 | 0.926 | – | 0.996 | 0.86 | 0.984 | 0.985 | 0.494 | – | – | – | – | – | 0.481 | 0.506 | 0.346 |
| BEN | 0.99 | 0.972 | 0.994 | 0.894 | 0.975 | 0.961 | 0.894 | 0.738 | 0.782 | 0.869 | 0.775 | 0.758 | 0.688 | 0.306 | 0.301 | 0.202 |
| CAL-12T | 0.957 | 1.01 | 1.05 | 0.949 | 1.08 | 0.985 | 1.07 | 0.904 | 1.11 | 1.2 | 1.2 | 1.12 | 0.97 | 0.857 | 0.719 | 0.444 |
| COR-L23 | 1.08 | 1.02 | 1.07 | 1 | 0.882 | 0.961 | 1.14 | 0.507 | 0.197 | 0.203 | 0.209 | 0.169 | 0.202 | 0.797 | 0.728 | 0.279 |
| COR-L 105 | 0.843 | 1.02 | 0.916 | 0.891 | 0.94 | 0.86 | 0.88 | 1.02 | 1.19 | 1.21 | 1.09 | 1.23 | 1.01 | 0.821 | 0.734 | 0.674 |
| Calu-6 | 0.962 | 1.05 | 1.03 | 1 | 0.977 | 1.04 | 0.996 | 0.614 | – | – | – | – | – | – | – | – |
| ChaGo-K-1 | 0.98 | 0.994 | 0.941 | 0.971 | 1.03 | 1.06 | 1.05 | 0.946 | 0.256 | 0.263 | 0.263 | 0.27 | 0.264 | 0.631 | 0.543 | 0.488 |
| EBC-1 | 1.01 | 1.03 | 1.07 | 1.02 | 1.01 | 1.01 | 1 | 0.643 | – | – | – | – | – | – | – | – |
| EKVX | 1.03 | 1.01 | 0.971 | 0.966 | 1.01 | 0.933 | 0.981 | 0.988 | 0.38 | 0.358 | 0.408 | 0.439 | 0.403 | 0.707 | 0.675 | 0.788 |
| EMC-BAC-2 | 0.918 | 1.01 | 1.05 | 0.931 | 1 | 1.08 | 0.972 | 0.632 | 0.403 | 0.457 | 0.465 | 0.421 | 0.408 | 0.361 | 0.422 | 0.338 |
| EPLC-272H | 0.904 | 1.2 | 0.874 | 1.01 | 0.911 | 0.988 | 0.905 | 0.447 | 0.275 | 0.395 | 0.308 | 0.356 | 0.315 | 0.278 | 0.243 | 0.187 |
| H3255 | 0.951 | 1.01 | 0.974 | 0.866 | 1.05 | 1.01 | 0.954 | 1.02 | 0.561 | 0.49 | 0.552 | 0.565 | 0.601 | 0.606 | 0.603 | 0.554 |
| HARA | 0.901 | 1.09 | 0.975 | 1.11 | 1.07 | 0.986 | 0.971 | 1.02 | 0.253 | 0.241 | 0.258 | 0.245 | 0.246 | 0.57 | 0.479 | 0.234 |
| HCC-15 | 1 | 1.06 | 0.963 | 1.03 | 1.02 | 1.03 | 1 | 0.978 | 0.209 | 0.209 | 0.212 | 0.217 | 0.229 | 0.698 | 0.703 | 0.516 |
| HCC-44 | 0.996 | 1.03 | 0.952 | 0.984 | 1 | 1.01 | 0.997 | 1.08 | 0.634 | 0.624 | 0.682 | 0.657 | 0.63 | 0.701 | 0.439 | 0.685 |
| HCC-78 | 0.993 | 0.93 | 1.04 | 0.944 | 0.968 | 1.08 | 0.998 | 0.877 | 0.977 | 0.894 | 0.884 | 0.903 | 0.89 | 0.379 | 0.375 | 0.34 |
| HCC-366 | 1.01 | 1.07 | 1 | 1.01 | 0.934 | 1.01 | 0.976 | 0.927 | 0.173 | 0.149 | 0.183 | 0.162 | 0.282 | 1.04 | 0.894 | 0.742 |
| HCC-827 | 1.03 | 1.05 | 0.987 | 1.02 | 1.1 | 1.07 | 1.03 | 0.971 | 0.217 | 0.211 | 0.277 | 0.251 | 0.254 | 0.775 | 0.759 | 0.775 |
